# Tests used:
# Type in all cases: in vivo, weißen Kaninchen (New Zealand)
# [1] = test system: atherosklerotischen Plaques in der Aorta; assay: Atherosclerotic plaques in the aorta of cholesterol-fed rabbits (Oil Red O staining, image analysis)
# Text: (§1) Der Versuch wurde mit weißen Kaninchen (New Zealand) männlichen Geschlechts mit einem Gewicht von 3-4 Kilogramm in Anlehnung an die publizierten Methoden nach A. Kisanuki, Y. Asada, K. Hatakeyama, T. Hayashi und A. Sumiyoshi: Contributions of the Endothelium to Intimal Thickening in Normocholesterolemic and Hypercholesterolemic Rabbits, Arteriosclerosis and Thrombosis (1992), 12; 1198 - 1205 und J. Cooke, A. Singer, P. Tsao, P. Zera, R.Rowan and M. Billingham: Antiatherogenic Effects of L-Arginine in the Hypercholesterolemic Rabbit(1992), 90; 1168 - 1172 durchgeführt. Nach einer Woche unter Standard-Kaninchenfutter (Altromin 2834, Lage-Lippe, Deutschland) wurden zwei Gruppen mit je 15 Kaninchen drei Monate lang mit cholesterinreicher Diät gefüttert. Die Diät enthielt 0.25% Cholesterin und 3% Kokosnußöl. Eine der beiden Gruppen erhielt zusätzlich eine subkutane Dauerinfusion von HOE 140 über implantierte osmotische Minipumpen über den gesamten Zeitraum von drei Monaten. Die Dosis betrug 100 µg/kg/Tag.
# (§2) Eine weitere Gruppe von 15 Kaninchen, die nicht-atherogene normale Diät erhielt, diente als negative Kontrolle. Futter und Wasser wurden ad libitum gegeben. Der Nachweis, daß die gewählte Dosis HOE 140 die Wirkung endogener Kinine hemmen kann, wurde über die Hemmung der blutdrucksenkenden Wirkung von exogenem Bradykinin geführt. Am Ende des Versuches, nach dreimonatiger Behandlung, wurden die Tiere narkotisiert und der basale Blutdruck gemessen. Der basale Blutdruck lag zwischen 100 und 110 mm Hg. Nach der Messung des basalen Blutdrucks wurde Bradykinin intraarteriell als Bolus in einer Dosis von 10 ng injiziert. Bei den Tieren mit normalem Futter führte dies zu einem Blutdruckabfall von 21 mm Hg, bei den Tieren mit atherogener Diät betrug der Blutdruckabfall 24 mm Hg. Bei Kaninchen mit atherogener Diät, die mit HOE 140 behandelt wurden, fiel der Blutdruck nur noch um 3.7 mm Hg, was eine effektive Hemmung der Bradykininwirkung durch HOE 140 anzeigte.
# (§3) Danach wurden die Kaninchen mit einer hohen Dosis von Pentobarbital (40 mg/kg) getötet und eine komplette Autopsie durchgeführt. Die atherosklerotischen Plaques wurden durch Öl-Rot O ([…]) sichtbar gemacht, ihr Ausmaß mittels eines Bildanalysators quantifiziert und die prozentuale Plaquegröße in der Aorta bestimmt. Weiterhin wurden die Cholesterinfraktionen (HDL, LDL und VLDL) im Serum mit Hilfe der Ultrazentrifugation bestimmt.
# [2] = test system: Serum Lipoprotein Fraktionen; assay: Serum cholesterol/lipoprotein fractions (HDL, LDL, VLDL) by ultracentrifugation in cholesterol-fed rabbits
# Text: as §1, §3
# [3] = test system: blutdrucksenkenden Wirkung von exogenem Bradykinin; assay: Inhibition of the blood-pressure-lowering effect of exogenous bradykinin in anaesthetised rabbits; settings: Bradykinin 10 ng intra-arterial bolus; anaesthetised rabbits on atherogenic diet after 3 months HOE 140 100 µg/kg/Tag s.c.; untreated controls 21 and 24 mm Hg
# Text: as §2
# [4] = atherogenic diet 3 months plus HOE 140 100 µg/kg/Tag s.c. continuous infusion, mean ± S.E.M.
compound,measurement,setting,value
N=C(N)NCCC[C@@H](N)C(=O)N[C@@H](CCCNC(=N)N)C(=O)N1CCC[C@H]1C(=O)N1C[C@H](O)C[C@H]1C(=O)NCC(=O)N[C@@H](Cc1cccs1)C(=O)N[C@@H](CO)C(=O)N1Cc2ccccc2C[C@@H]1C(=O)N1[C@H](C(=O)N[C@@H](CCCNC(=N)N)C(=O)O)C[C@@H]2CCCC[C@@H]21 [HOE 140],"Plaques in der Aorta: Fläche in Prozent der Intimafläche, Thorakale Aorta",[1]; [4],1.6 ± 1.1 Prozent der Intimafläche
same,"Plaques in der Aorta: Fläche in Prozent der Intimafläche, Aortenbogen","[1]; atherogenic diet (0.25% Cholesterin, 3% Kokosnußöl) 3 months plus HOE 140 100 µg/kg/Tag s.c. continuous infusion, mean ± S.E.M.",23.4 ± 5.4 Prozent der Intimafläche
same,"Plaques in der Aorta: Fläche in Prozent der Intimafläche, Abdominelle Aorta 1","[1]; first section of abdominal aorta, atherogenic diet 3 months plus HOE 140 100 µg/kg/Tag s.c. continuous infusion, mean ± S.E.M.",1.4 ± 0.6 Prozent der Intimafläche
same,Arteriosklerotische Veränderungen der Gefäßwände,"[1]; result in words, cholesterol-fed rabbits treated with HOE 140",stark reduziert
same,Atherosklerotische Veränderungen des Aortenbogens und der Aortenabschnitte in Brust und Bauch,"[1]; result in words, versus atherogenic diet alone",bei weitem geringer
same,"Plaques in der Aorta: Fläche in Prozent der Intimafläche, Abdominelle Aorta 2","[1]; second section of abdominal aorta, atherogenic diet 3 months plus HOE 140 100 µg/kg/Tag s.c. continuous infusion, mean ± S.E.M.",7.0 ± 1.5 Prozent der Intimafläche
same,"Serum Lipoprotein Fraktionen, HDL",[2]; [4],4981 ± 576 µg/mL
same,"Serum Lipoprotein Fraktionen, LDL",[2]; [4],168 ± 21 µg/mL
same,"Serum Lipoprotein Fraktionen, VLDL",[2]; [4],250 ± 12 µg/mL
same,HDL-Werte,"[2]; result in words, HDL raised by cholesterol-rich diet",keinen Einfluß
same,LDL und VLDL (Serumlipide),"[2]; result in words, versus atherogenic diet alone, hardly distinguishable from normal-diet controls",stark erniedrigt
same,Blutdruckabfall nach Bradykinin,[3],3.7 mm Hg
